{
  "source": "patent US20260083815A1",
  "about": "“COMPOSITION FOR INHIBITING TOXICITY OF NANOPARTICLES AND ENVIRONMENTALLY-DERIVED FINE PARTICLES” (AJOU UNIVERSITY INDUSTRY-ACADEMIC COOPERATION FOUNDATION, priority 2019, published 2026)",
  "key": {"[1]": {"tested_on": "microglia", "details": "24 hours", "description": "After the cells were suspended, the number of cells was measured and adjusted to the same cell number. The cells became luminescent according to the amount of ATP using a luciferin-based ATP luminescence measurement kit (Promega, USA), the luminescence degree was measured by a luminometer (LMaxII384; Molecular Devices, USA), and ChemiDoc™ Touch Gel Imaging System (Bio-Rad) was used for imaging."}, "[2]": {"tested_on": "microglia", "details": "24 hours", "remark": "listed apart in the source", "procedure": "Microglia cultured by the cell culture method of Example 1 was treated with 0.1 μg/μl of MNPs@SiO2(RITC) (average diameter of 50 nm), silica nanoparticles (SiO2, average diameter of 50 nm), silver nanoparticles (Ag, average diameter of 20 nm), gold nanoparticles (Au, average diameter of 10 nm), quantum dot nanoparticles (CdSe, average diameter of 10 nm), polystyrene microplastics (PS, average diameter of 2 μm and 100 nm), urban particulate matters (UPM, NIST 1648A), silica nanoparticles (SiO2, average diameter of 30 nm), titanium oxide nanoparticles (TiO2, average diameter of 40 nm), and carbon nanotubes (MWCNT, average diameter of 25 nm) for 24 hours, and then images were taken using fluorescence and optical microscopes (Axio Vert 200M fluorescence microscopy, Zeiss, Jena, Germany). Fluorescence of MNPs@SiO2(RITC) (average diameter of 50 nm) and quantum dot nanoparticles (CdSe, average diameter of 10 nm) which are fluorescent were photographed also."}, "[3]": {"tested_on": "microglia", "details": "0.1 μg/μl of each of 11 nanoparticles/particulate matters, 24 hours, formazan absorbance at 490 nm", "procedure": "Microglia cultured by the cell culture method of Example 1 were treated with 0.1 μg/μl of MNPs@SiO2(RITC) (average diameter of 50 nm), silica nanoparticles (SiO2, average diameter of 50 nm), silver nanoparticles (Ag, average diameter of 20 nm), gold nanoparticles (Au, average diameter of 10 nm), quantum dot nanoparticles (CdSe, average diameter of 10 nm), polystyrene microplastics (PS, average diameter of 2 μm and 100 nm), urban particulate matters (UPM, NIST 1648A), silica nanoparticles (SiO2, average diameter of 30 nm), titanium oxide nanoparticles (TiO2, average diameter of 40 nm), and carbon nanotubes (MWCNT, average diameter of 25 nm) for 24 hours, a kit (CellTilter 96 Aqueous One Solution Cell Proliferation Assay, Promega Corporation, Madison, WI) for analyzing cell viability based on the activity of succinic dehydrogenase was mixed, and the degree of formazan formation in accordance with the cell viability was measured with absorbance at 490 nm."}},
  "note": "Where two headings read alike, the source gives them in different places.",
  "data": [
    {"molecule": "O=C(O)CC(O)(CC(=O)O)C(=O)O", "note": "[citric acid]", "values": [
      {"measurement": "ATP reduction induced by MNPs@SiO2(RITC)", "setting": "[1]; 0.01 or 0.1 μg/μl MNPs@SiO2(RITC), luminescence", "value": "inhibited"},
      {"measurement": "ATP increase compared to group treated only with MNPs@SiO2(RITC)", "setting": "[1]; co-treated with 0.1 μg/μl MNPs@SiO2(RITC) (50 nm)", "value": 30, "unit": "%"},
      {"measurement": "decrease in the cell number due to particles", "setting": "[2]; 0.1 μg/μl MNPs@SiO2(RITC)", "value": "mitigated"},
      {"measurement": "decrease in the cell number due to particles", "setting": "[2]; 0.1 μg/μl gold nanoparticles (Au, 10 nm)", "value": "mitigated"},
      {"measurement": "decrease in the cell number due to particles", "setting": "[2]; 0.1 μg/μl polystyrene microplastics (PS, 2 μm)", "value": "mitigated"},
      {"measurement": "decrease in the cell number due to particles", "setting": "[2]; 0.1 μg/μl polystyrene microplastics (PS, 100 nm)", "value": "mitigated"},
      {"measurement": "decrease in the cell number due to particles", "setting": "[2]; 0.1 μg/μl quantum dot nanoparticles (CdSe, 10 nm)", "value": "mitigated"},
      {"measurement": "decrease in the cell number due to particles", "setting": "[2]; 0.1 μg/μl silica carbon nanotubes (MWCNT, 25 nm)", "value": "mitigated"},
      {"measurement": "decrease in the cell number due to particles", "setting": "[2]; 0.1 μg/μl silica nanoparticles (SiO2, 30 nm)", "value": "mitigated"},
      {"measurement": "decrease in the cell number due to particles", "setting": "[2]; 0.1 μg/μl silica nanoparticles (SiO2, 50 nm)", "value": "mitigated"},
      {"measurement": "decrease in the cell number due to particles", "setting": "[2]; 0.1 μg/μl silver nanoparticles (Ag, 20 nm)", "value": "mitigated"},
      {"measurement": "decrease in the cell number due to particles", "setting": "[2]; 0.1 μg/μl titanium oxide nanoparticles (TiO2, 40 nm)", "value": "mitigated"},
      {"measurement": "decrease in the cell number due to particles", "setting": "[2]; 0.1 μg/μl urban particulate matters (UPM, NIST 1648A)", "value": "mitigated"},
      {"measurement": "reduction in cell viability due to nanoparticles and particulate matters", "setting": "[3]", "value": "mitigated"}
    ]}
  ]
}
